Experimental data reported in PMC11087444, “Multi-functionalization of reduced graphene oxide nanosheets for tumor theragnosis: Synthesis, characterization, enzyme assay, in-silico study, radiolabeling and in vivo targeting evaluation” (DARU Journal of Pharmaceutical Sciences, 2023).
One block for each compound: values may come before it.

Legend:
[1] = test system: human breast cancer MDA-MB-436 cells; experiment: MTT cell proliferation assay, cytotoxicity of compounds 3 and 4a-c; assay type: cell-based; conditions: for IC50: Homo sapiens, MTT, BRCA1 deficient MDA-MB-436 cells; for reduction in potency (cytotoxicity): MDA-MB-436, relative to Staurosporine
Method: The cytotoxicity assay was performed at Department of therapeutic chemistry/ National Research Center. cytotoxic activity of target compounds 3, 4a-c was determined via three independent experiments by 3-(4,5-dimethylthiazolyl-2)-2,5-diphenyltetrazolium bromide (MTT) cell proliferation assay against the cell proliferation of human breast cancer MDA-MB-436 cells carrying natural BRCA1 deficient [R].

[2] = molecular target: T1, PARP-1 (Homo sapiens, UniProt P09874); experiment: In vitro PARP inhibition assay (HT F Homogeneous PARP Inhibition Assay Kit); assay type: biochemical
T1 construct: purchased Trevigen 4690-096-K
T1 sequence (P09874 whole entry): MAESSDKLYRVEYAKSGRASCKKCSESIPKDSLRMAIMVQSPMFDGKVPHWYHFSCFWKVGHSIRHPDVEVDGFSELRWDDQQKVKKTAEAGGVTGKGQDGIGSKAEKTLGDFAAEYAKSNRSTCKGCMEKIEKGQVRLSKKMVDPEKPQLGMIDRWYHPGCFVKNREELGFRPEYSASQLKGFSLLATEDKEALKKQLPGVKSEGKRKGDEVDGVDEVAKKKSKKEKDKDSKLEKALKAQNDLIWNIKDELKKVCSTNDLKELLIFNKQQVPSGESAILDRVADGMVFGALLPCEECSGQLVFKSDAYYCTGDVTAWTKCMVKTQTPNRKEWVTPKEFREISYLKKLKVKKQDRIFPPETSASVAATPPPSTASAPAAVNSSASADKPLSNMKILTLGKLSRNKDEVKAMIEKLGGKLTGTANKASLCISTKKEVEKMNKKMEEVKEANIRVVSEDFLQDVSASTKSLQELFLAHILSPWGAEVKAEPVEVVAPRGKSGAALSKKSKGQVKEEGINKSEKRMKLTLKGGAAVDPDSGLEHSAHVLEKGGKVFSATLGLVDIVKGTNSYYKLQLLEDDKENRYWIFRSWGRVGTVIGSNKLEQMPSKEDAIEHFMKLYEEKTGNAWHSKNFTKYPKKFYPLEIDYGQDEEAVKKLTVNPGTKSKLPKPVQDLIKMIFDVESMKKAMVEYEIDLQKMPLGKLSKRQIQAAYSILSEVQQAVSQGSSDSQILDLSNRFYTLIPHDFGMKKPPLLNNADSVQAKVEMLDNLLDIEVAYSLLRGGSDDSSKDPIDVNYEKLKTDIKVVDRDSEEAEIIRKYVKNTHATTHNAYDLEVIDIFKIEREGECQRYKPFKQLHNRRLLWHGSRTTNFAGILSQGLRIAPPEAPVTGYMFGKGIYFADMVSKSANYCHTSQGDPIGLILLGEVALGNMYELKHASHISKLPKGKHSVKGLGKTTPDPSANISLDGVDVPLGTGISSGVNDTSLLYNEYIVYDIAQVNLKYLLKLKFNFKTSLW
Method: Olaparib was used as positive control. Fluorescence values under the condition of excitation wavelength (544 nm) and emission wavelength (590 nm) were measured using a multi-well spectrophotometer (Molecular Devices SpectraMax M5 microplate reader, Careforde, Chicago, USA). Then, the standard curve was drawn and the inhibition rate of each test compound was calculated. IC50 value of each compound was calculated using GraphPad Prism 6 software.

[3] = Biodistribution of radiolabeled complexes in normal mice; assay type: in vivo, Albino mice
[4] = test system: solid tumor (Ehrlich Ascites Carcinoma); experiment: Biodistribution and tumor targeting in solid tumor-bearing mice; assay type: in vivo, Swiss Albino mice
Method: To form a solid tumor, a 0.2 mL of Ehrlich Ascites Carcinoma fluid was administered intramuscularly in the right thigh of female Swiss Albino mice. The animals were well-cared until the tumors became obvious (7- 10 days). The parent tumor line (Ehrlich Ascites Carcinoma) was withdrawn from 7-day-old Swiss Albino donor females and diluted with sterile physiological saline solution to yield 12.5 x 10^6 cells/mL [52].
Biodistribution studies were performed by injecting the solid tumor-bearing mice intravenously with NGO-COOH nanosheets followed by injecting the radiolabeled complexes. The mice were divided into four groups (four mice per group) according to the designated time of dissection. Following the administration of the radiolabeled nanosheets, mice were dissected at 0.5, 1, 2, 4 h post injection (p.i). Blood, solid tumor, and major organs/tissues were collected and wet-weighed. The distribution of the radioactivity in each organ/ fluid was measured ex vivo, the radioactivity in each was detected by a gamma-counter (Perkin Elmer) as presented in Fig. 4. The results were expressed as mean percentage injected dose per gram (%ID/g ± SD).

Compound: NNS(=O)(=O)c1ccc2c(=O)[nH]c(=O)[nH]c2c1 [Compound 3, 2,4-dioxo-1,2,3,4-tetrahydroquinazoline-7-sulfonohydrazide]
IC50 [1]: 0.006 µM | times more potent than Staurosporine (cytotoxicity) ([1]; MDA-MB-436, ratio of IC50): about 1.6 times | IC50 [2]: 0.261 µM | melting point: 268 to 270 °C

Compound: [^99mTc]Tc-2,4-dioxo-1,2,3,4-tetrahydroquinazoline-7-sulfonohydrazide [^99mTc-3]
blood uptake ([3]; normal mice, i.v., 0.5 h p.i.): 10.5 ± 1.4 %ID/g | liver uptake ([3]; normal mice, i.v., 0.5 h p.i.): 11 ± 1.7 %ID/g | liver uptake ([3]; normal mice, i.v., 1 h p.i.): 12 ± 1.2 %ID/g | blood uptake ([3]; normal mice, i.v., 4 h p.i.): 3.2 ± 0.4 %ID/g | liver uptake ([3]; normal mice, i.v., 4 h p.i.): 8 ± 1.3 %ID/g | tumor uptake ([4]; solid tumor-bearing mice, i.v., 0.5 h p.i.): 5.0 ± 0.40 %ID/g | tumor uptake ([4]; solid tumor-bearing mice, i.v., 2 h p.i.): 6.5 ± 0.3 %ID/g | tumor uptake ([4]; solid tumor-bearing mice, i.v., 4 h p.i.): 6.0 ± 0.4 %ID/g

Compound: [^99mTc]Tc-NGO-COOH-2,4-dioxo-1,2,3,4-tetrahydroquinazoline-7-sulfonohydrazide [^99mTc-NGO-COOH-3]
blood uptake ([3]; mouse, in vivo, iv, 0.5 h): 5.0 ± 0.5 %ID/g | liver uptake ([3]; mouse, in vivo, iv, 0.5 h): 7.0 ± 0.7 %ID/g | blood uptake ([3]; mouse, in vivo, iv, 4 h): 1 ± 0.1 %ID/g | liver uptake ([3]; mouse, in vivo, iv, 4 h): 15.0 ± 1.5 %ID/g | target/nontarget (T/NT) ratio, tumor muscle to contralateral normal muscle ([4]; mouse, in vivo, iv): 9.0 | tumor uptake ([4]; mouse, in vivo, iv, 0.5 h): 7.0 ± 0.70 %ID/g | tumor uptake ([4]; mouse, in vivo, iv, 1 h): 12.0 ± 1.2 %ID/g

The next lines start with results.

IC50 [2]: 0.436 µM | melting point: > 300 °C
Compound: Cc1ccc(NS(=O)(=O)c2ccc3c(=O)[nH]c(=O)[nH]c3c2)cc1 [Compound 4a, 2,4-Dioxo-N-(p-tolyl)-1,2,3,4-tetrahydroquinazoline-7-sulfonamide]
IC50 [1]: 0.05 µM | reduction in potency (cytotoxicity) [1]: 5 folds

IC50 [2]: 0.167 µM | melting point: 280 to 282 °C
Compound: O=C(O)c1ccccc1NS(=O)(=O)c1ccc2c(=O)[nH]c(=O)[nH]c2c1 [Compound 4b, 2-(2,4-Dioxo-1,2,3,4-tetrahydroquinazoline-7-sulfonamido) benzoic acid]

IC50 [2]: 0.153 µM | melting point: 265 to 267 °C
Compound: O=c1[nH]c(=O)c2ccc(S(=O)(=O)Nc3nccs3)cc2[nH]1 [Compound 4c, 2,4-dioxo-N-(thiazol-2-yl)-1,2,3,4-tetrahydroquinazoline-7-sulfonamide]
IC50 [1]: 0.04 µM | reduction in potency (cytotoxicity) [1]: 4 folds
